These results are taken from PubChem BioAssay (NCI).

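Following 48 hours of exposure in 96-well plates, responses at five concentrations were used to interpolate endpoints linearly. Abbreviation: GI50, concentration required for 50% inhibition of growth. TGI: total growth inhibition.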

Among the test systems are HCT-15 colon; HL-60(TB) leukemia; HOP-92 NSCLC; MDA-MB-231 breast; OVCAR-4 ovarian; RPMI-8226 leukemia; SF-268 CNS; UACC-257 melanoma.
Test in all cases: inhibition of tumour cell growth, NCI panel, 48 h

With `CCCCCCCCCCCC1=NC(C)(C)CN1C(C)C`, the GI50 in the assay with HCT-15 colon was 2.63 µM; in the assay with HL-60(TB) leukemia it was 2.14 µM; in the assay on HOP-92 NSCLC, 1.19 µM; with MDA-MB-231 breast, 3.67 µM; in the assay with OVCAR-4 ovarian, 4.29 µM; in the assay with RPMI-8226 leukemia, 1.44 µM. The GI50 is 5.51 µM with SF-268 CNS and 2.49 µM in the assay with UACC-257 melanoma. The TGI in the assay on HCT-15 colon is 8.76 µM; with HL-60(TB) leukemia, 4.55 µM; with HOP-92 NSCLC it was 5.17 µM; with MDA-MB-231 breast, 14 µM; in the assay on OVCAR-4 ovarian, 15.9 µM; in the assay with RPMI-8226 leukemia it was 3.66 µM. Also, the TGI in the assay on SF-268 CNS came out at 18.2 µM; with UACC-257 melanoma, 6.02 µM.

`CC(C)CC(NC(=O)C(O)C(N)Cc1ccccc1)C(=O)O` (centres undefined): the TGI with HCT-15 colon, in the assay on HL-60(TB) leukemia, in the assay with HOP-92 NSCLC, in the assay with MDA-MB-231 breast, in the assay on OVCAR-4 ovarian and with RPMI-8226 leukemia was greater than 100 µM in each case. Also, the TGI with SF-268 CNS and in the assay with UACC-257 melanoma was greater than 100 µM each time.

For `O=C(Nc1ccc(Nc2ccc3c(c2)C(=O)c2ccccc2C3=O)c2c1C(=O)c1ccccc1C2=O)c1ccccc1`, the TGI with HCT-15 colon, in the assay with HL-60(TB) leukemia, in the assay with HOP-92 NSCLC, in the assay with MDA-MB-231 breast, with OVCAR-4 ovarian and in the assay on RPMI-8226 leukemia was greater than 100 µM each time. The TGI in the assay with SF-268 CNS and with UACC-257 melanoma was greater than 100 µM throughout.

For the compound `CN1CCC2(CC1)C(=O)Nc1cc(NC(=O)c3ccc4c(c3)C[C@@H]3C(C)(C)[C@H](O)[C@H](F)C[C@@]3(C)O4)ccc12`, the GI50 is 11 µM with HCT-15 colon; 0.0842 µM in the assay on HL-60(TB) leukemia; 1.97 µM in the assay on HOP-92 NSCLC; 3.36 µM in the assay with MDA-MB-231 breast; 25.9 µM with OVCAR-4 ovarian; 0.0272 µM with RPMI-8226 leukemia. For the same compound, the GI50 in the assay on SF-268 CNS was 6.68 µM; in the assay with UACC-257 melanoma, 3.21 µM. Also, the TGI in the assay on HCT-15 colon was 45.8 µM; with HL-60(TB) leukemia it was 13.7 µM; in the assay on HOP-92 NSCLC, 31.1 µM; in the assay with MDA-MB-231 breast it was 21.1 µM; in the assay with OVCAR-4 ovarian it was greater than 100 µM; in the assay with RPMI-8226 leukemia, 10.8 µM. Moreover, the TGI is 31.9 µM in the assay on SF-268 CNS and 21.2 µM in the assay with UACC-257 melanoma.

Regarding `O=C(Nc1ccccc1/C=C/c1n[nH]c2ccccc12)c1ccccc1`, the GI50 with HCT-15 colon is 2.37 µM; with HL-60(TB) leukemia, 0.589 µM; in the assay with HOP-92 NSCLC, 0.218 µM; with MDA-MB-231 breast, 3.45 µM; in the assay on OVCAR-4 ovarian, 9.46 µM; in the assay on RPMI-8226 leukemia, 3.07 µM. The GI50 was 3.75 µM in the assay on SF-268 CNS and 2.36 µM in the assay on UACC-257 melanoma. Besides, the TGI was found to be 8.53 µM with HCT-15 colon; 16.2 µM in the assay with HL-60(TB) leukemia; 5.25 µM in the assay with HOP-92 NSCLC; 15.7 µM with MDA-MB-231 breast; 24.7 µM with OVCAR-4 ovarian; 12.8 µM in the assay on RPMI-8226 leukemia. The TGI is 17.3 µM in the assay with SF-268 CNS and 16.5 µM in the assay on UACC-257 melanoma.

Turning to `CCOC(=O)c1sc2nc(=S)[nH]c(NC(N)=S)c2c1C`, the GI50 in the assay on HCT-15 colon is 16.7 µM; with HL-60(TB) leukemia, 51.2 µM; in the assay on HOP-92 NSCLC, 4.58 µM; in the assay on MDA-MB-231 breast, 12.1 µM; in the assay with OVCAR-4 ovarian it was 35.4 µM; in the assay with RPMI-8226 leukemia, 18.4 µM. The GI50 in the assay with SF-268 CNS was 17.8 µM; in the assay on UACC-257 melanoma it was 24.6 µM. The TGI in the assay on HCT-15 colon was 39.2 µM; in the assay on HL-60(TB) leukemia, greater than 100 µM; with HOP-92 NSCLC, 37.5 µM; with MDA-MB-231 breast it was 31.9 µM; in the assay with OVCAR-4 ovarian, greater than 100 µM; with RPMI-8226 leukemia, 49.9 µM. In addition, the TGI with SF-268 CNS was found to be 42.7 µM; with UACC-257 melanoma, 47.3 µM.

As for `CC(NC(=O)c1ccc(Cl)c(Cl)c1)c1ccc(-c2ccccc2)cc1` (centres undefined), the TGI in the assay with HCT-15 colon is greater than 100 µM; in the assay with HL-60(TB) leukemia, greater than 100 µM; with HOP-92 NSCLC, greater than 100 µM; in the assay on MDA-MB-231 breast it was greater than 100 µM; with OVCAR-4 ovarian, 37.7 µM; with RPMI-8226 leukemia, greater than 100 µM. The TGI with SF-268 CNS and with UACC-257 melanoma was greater than 100 µM throughout.

For `CCOc1cc(/C=C/C(=O)CC(=O)/C=C/c2ccc(OC(=O)CNc3nc4ccc(OC)cc4s3)c(OCC)c2)ccc1OC(=O)CNc1nc2ccc(OC)cc2s1`, the GI50 in the assay with HCT-15 colon was 5.24 µM; with HL-60(TB) leukemia, 2.77 µM; in the assay with HOP-92 NSCLC, 18 µM; in the assay with MDA-MB-231 breast it was 13.8 µM; with OVCAR-4 ovarian, 13.6 µM; in the assay with RPMI-8226 leukemia, 1.69 µM. For the same compound, the values for the GI50 with SF-268 CNS and in the assay on UACC-257 melanoma were 3.12 µM and 5.53 µM, respectively. Further, the TGI was 22.6 µM with HCT-15 colon; 15.2 µM with HL-60(TB) leukemia; 56.3 µM in the assay on HOP-92 NSCLC; 60 µM in the assay with MDA-MB-231 breast; 68.5 µM with OVCAR-4 ovarian; 4.29 µM with RPMI-8226 leukemia. Also, the TGI in the assay with SF-268 CNS came to 25.8 µM; with UACC-257 melanoma, 21.1 µM.
